In patent publication US20240118265A1, “MATERIALS AND METHODS TO IMPROVE IN VITRO TOXICITY PREDICTIONS” (priority 2022, published 2024):
Where two headings read alike, the source gives them in different places.

What was measured:
[1] = test system: eye; details: cited from earlier work
[2] = test system: RhCE tissues; details: without DM test; cited from earlier work
[3] = Depth of Migration (DM) test; assay type: physicochemical
[4] = test system: cultured epithelium; details: cited from earlier work
[5] = test system: bovine cornea; details: cited from earlier work
[6] = test system: isolated chicken eye; details: without DM test; cited from earlier work
[7] = 1:100 dilution in DM dye solution, 30 μL, 15° platform, after 30-120 seconds, table value

DM Distance Traveled [3, 7]	Compound	in vivo GHS ([1]; GHS category)	in vivo GHS ([1]; rabbit, in vivo)	other results
–	CCCOCC(C)OCC(C)O (stereo not drawn) [1-(1-methyl-2-propoxyethoxy)propan-2-ol]	–	Cat. 2	Short Time Exposure (STE) prediction versus in vivo [4]: false negatives; DM Distance Traveled [3]: 4.5 cm
4.5 cm	CC(C)(O)CCC(C)(C)O [2,5-Dimethyl-2,5-hexanediol]	Cat. 1	–	Short Time Exposure (STE) prediction versus in vivo ([4]; without DM test): false negatives
4.5 cm	O=C(Cl)c1c(Cl)cccc1Cl [2,6-Dichlorobenzoyl chloride]	Cat. 2	–	Short Time Exposure (STE) prediction versus in vivo ([4]; without DM test): false negatives
–	CC(C)(C)CC(C)(C)c1ccc(O)cc1 [4-(1,1,3,3-Tetramethylbutyl)phenol]	Cat. 1	–	BCOP prediction versus in vivo ([5]; without DM test): false negatives; DM Distance Traveled [3]: 4.5 cm
4.5 cm	O=Cc1ccc(C(=O)O)cc1 [4-carboxybenzaldehyde]	Cat. 2	–	ICE prediction versus in vivo [6]: false negatives
4.5 cm	C=C1C2CCC(C2)C1(C)C (stereo not drawn) [Camphene]	–	–	–
4.5 cm	CCO [Ethanol]	Cat. 2	–	Short Time Exposure (STE) prediction versus in vivo ([4]; without DM test): false negatives
4.5 cm	CCOC(=O)CC(=O)c1cc(F)c(Cl)nc1Cl [Ethyl 2,6-dichloro-5-fluoro-beta-oxo-3-pyridine propionate]	–	Cat. 2	BCOP prediction versus in vivo [5]: false negatives
–	C=CC(=O)OCCO [Hydroxyethyl acrylate]	–	–	DM Distance Traveled [3]: 4.5 cm
4.5 cm	CC(C)O [Isopropanol]	Cat. 2	–	Short Time Exposure (STE) prediction versus in vivo ([4]; without DM test): false negatives
4.5 cm	N[C@@H](CC(=O)O)C(=O)O [L-Aspartic acid]	–	–	–
4.5 cm	COC(C)=O [Methyl acetate]	Cat. 2	–	Short Time Exposure (STE) prediction versus in vivo ([4]; without DM test): false negatives
4.5 cm	COC(=O)CC#N [Methyl cyanoacetate]	Cat. 2	–	EpiOcular prediction versus in vivo [2]: false negatives; Short Time Exposure (STE) prediction versus in vivo ([4]; without DM test): false negatives; ICE prediction versus in vivo [6]: false negatives
–	C/C=C/C=C/C(=O)[O-].[K+] [Potassium sorbate]	–	Cat. 2	Short Time Exposure (STE) prediction versus in vivo [4]: false negatives; DM Distance Traveled [3]: 4.5 cm
–	O=C([O-])c1ccccc1O.[Na+] [Sodium salicylate]	–	Cat. 1	Short Time Exposure (STE) prediction versus in vivo [4]: false negatives; DM Distance Traveled [3]: 4.5 cm
–	Triton X-100 (10%)	–	–	known ocular irritancy class of the chemical ([1]; reference classification): ocular corrosive

Compound	DM Distance Traveled [3, 7]	in vivo GHS ([1]; GHS category)	in vivo GHS ([1]; rabbit, in vivo)	other results
Cc1c(COC(=O)[C@@H]2[C@H](/C=C(\Cl)C(F)(F)F)C2(C)C)cccc1-c1ccccc1 (racemic) [Bifenthrin]	4.5 cm	Cat. 2	–	EpiOcular prediction versus in vivo [2]: false negatives
CCCCOc1ccc(OCCCC)cc1 [1,4-dibutoxy benzene]	4.5 cm	Cat. 2	–	EpiOcular prediction versus in vivo [2]: false negatives
CC(=O)O[C@H]1NC(=O)[C@@H]1[C@@H](C)O[Si](C)(C)C(C)(C)C [(2R,3R)-3-((R)-1-(tert-Butyldimethylsiloxy)ethyl)-4-oxoazetidin-2-yl acetate]	4.5 cm	Cat. 2	–	BCOP prediction versus in vivo ([5]; without DM test): false negatives
c1ccc2c(c1)CCc1ccccc1N2 [Iminodibenzyl]	4.5 cm	–	Cat. 1	EpiOcular prediction versus in vivo [2]: false negatives
CCCCCCCCCCCCCCO [Myristyl alcohol]	4.5 cm	–	Cat. 2	Short Time Exposure (STE) prediction versus in vivo [4]: false negatives
CCN(CC)CCCC(C)Nc1c2ccc(Cl)cc2nc2ccc(OC)cc12 (stereo not drawn) [Quinacrine]	4.5 cm	–	Cat. 1	BCOP prediction versus in vivo ([5]; without DM test): false negatives
